Results published in ChEMBL document CHEMBL1157923, “Probing the cannabinoid CB1/CB2 receptor subtype selectivity limits of 1,2-diarylimidazole-4-carboxamides by fine-tuning their 5-substitution pattern” (Bioorg Med Chem Lett, 2010).

Columns and labels:
Homo sapiens = species on record: Homo sapiens; assay: Selectivity ratio Ki for human CB2 receptor to Ki for human CB1 receptor
Cannabinoid receptor 2 = Cannabinoid receptor 2 (Homo sapiens, UniProt P34972); assay: Displacement of [3H]CP-55940 from human CB2 receptor expressed in CHO cells; type: cell-based
Cannabinoid receptor 1 = Cannabinoid receptor 1 (Homo sapiens, UniProt P21554); assay: biochemical; type: cell-based, CHO
[1] = Lipophilicity log P of compound at pH 7.4 by RP-HPLC analysis; type: physicochemical; settings: buffer
LLC-PK1 = assay: Efflux ratio of permeability in pig LLC-PK1 cells expressing human MDR1 assessed as ratio of bottom to top transport over top to bottom transport; type: ADME, cell-based, Sus scrofa
Rattus norvegicus = assay: Inhibition of CP-55940-induced hypotension in po dosed anaesthetized rat; type: functional; settings: read-out: ID50 (the source's name)
[2] = Terminal half life in non obese human; type: ADME, organism-based; settings: in vivo, read-out: beta t1/2 (converted)

Chain of Cannabinoid receptor 1 (P21554 whole entry): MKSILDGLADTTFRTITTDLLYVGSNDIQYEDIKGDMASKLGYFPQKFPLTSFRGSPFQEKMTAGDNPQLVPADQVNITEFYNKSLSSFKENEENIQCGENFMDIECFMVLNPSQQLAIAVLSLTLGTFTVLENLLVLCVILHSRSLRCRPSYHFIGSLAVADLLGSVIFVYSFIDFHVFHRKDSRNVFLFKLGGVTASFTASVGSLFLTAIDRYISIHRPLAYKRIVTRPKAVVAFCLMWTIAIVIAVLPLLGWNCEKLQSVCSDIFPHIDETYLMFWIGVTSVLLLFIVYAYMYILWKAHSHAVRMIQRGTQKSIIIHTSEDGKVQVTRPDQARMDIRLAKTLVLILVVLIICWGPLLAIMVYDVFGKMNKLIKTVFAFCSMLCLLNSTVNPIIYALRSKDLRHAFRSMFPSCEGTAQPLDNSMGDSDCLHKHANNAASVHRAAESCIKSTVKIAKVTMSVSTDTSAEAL
Chain of Cannabinoid receptor 2 (P34972 whole entry): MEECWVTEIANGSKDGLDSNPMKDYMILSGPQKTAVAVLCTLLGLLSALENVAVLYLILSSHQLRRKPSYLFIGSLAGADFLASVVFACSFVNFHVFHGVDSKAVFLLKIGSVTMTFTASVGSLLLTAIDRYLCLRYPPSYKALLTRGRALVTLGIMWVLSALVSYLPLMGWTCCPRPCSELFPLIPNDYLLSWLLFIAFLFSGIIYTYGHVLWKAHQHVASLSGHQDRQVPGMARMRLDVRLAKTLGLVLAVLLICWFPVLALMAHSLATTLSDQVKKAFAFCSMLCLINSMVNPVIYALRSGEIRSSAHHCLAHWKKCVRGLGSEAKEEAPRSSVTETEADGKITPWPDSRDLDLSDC

SMILES: N#Cc1c(C(=O)NN2CCCCC2)nc(-c2ccc(Cl)cc2Cl)n1-c1ccc(Cl)cc1
- Ratio IC50 (Homo sapiens): 53

SMILES: C[S+]([O-])c1c(C(=O)NN2CCCCC2)nc(-c2ccc(Cl)cc2Cl)n1-c1ccc(Cl)cc1 (stereo in doubt; 12) [listing 1 of 2 here]
- Ratio IC50 (Homo sapiens): > 20

SMILES: CSc1c(C(=O)NN2CCCCCC2)nc(-c2ccc(Cl)cc2Cl)n1-c1ccc(Cl)cc1
- Ki (Cannabinoid receptor 2): 325 nM
- Ki (Cannabinoid receptor 1): 12 nM
- Ratio IC50 (Homo sapiens): 27

SMILES: CCSc1c(C(=O)NN2CCCCC2)nc(-c2ccc(Cl)cc2Cl)n1-c1ccc(Cl)cc1
- Ki (Cannabinoid receptor 2): > 1000 nM
- Ki (Cannabinoid receptor 1): 51 nM
- Ratio IC50 (Homo sapiens): > 19

SMILES: Cc1c(C(=O)NN2CCCCC2)nc(-c2ccc(Cl)cc2Cl)n1-c1ccc(Cl)cc1
- Ratio IC50 (Homo sapiens): 20

SMILES: C[S+]([O-])c1c(C(=O)NN2CCCCC2)nc(-c2ccc(Cl)cc2Cl)n1-c1ccc(Cl)cc1 (single isomer, unassigned; (-)) [listing 1 of 2 here]
- Ratio IC50 (Homo sapiens): > 50

SMILES: CS(=O)(=O)c1c(C(=O)NN2CCCCC2)nc(-c2ccc(Cl)cc2Cl)n1-c1ccc(Cl)cc1
- logP [1]: 3.5
- Ratio (LLC-PK1): 6
- Ki (Cannabinoid receptor 2): > 10000 nM
- ED50 (Rattus norvegicus): 29 mg/kg
- Ratio IC50 (Homo sapiens): > 840

SMILES: CSc1c(C(=O)NN2CCCC2)nn(-c2ccc(Cl)cc2Cl)c1-c1ccc(Cl)cc1
- logP [1]: 4.7
- Ki (Cannabinoid receptor 2): 634 nM
- Ki (Cannabinoid receptor 1): 3 nM
- ED50 (Rattus norvegicus): 1.9 mg/kg
- Ratio IC50 (Homo sapiens): 211

SMILES: C[S+]([O-])c1c(C(=O)NN2CCCCC2)nc(-c2ccc(Cl)cc2Cl)n1-c1ccc(Cl)cc1 (single isomer, unassigned; (-)) [listing 2 of 2 here]
- Ki (Cannabinoid receptor 2): > 1000 nM
- Ki (Cannabinoid receptor 1): 20 nM

SMILES: C[S+]([O-])c1c(C(=O)NN2CCCCC2)nc(-c2ccc(Cl)cc2Cl)n1-c1ccc(Cl)cc1 (single isomer, unassigned; (+)) [listing 1 of 2 here]
- Ki (Cannabinoid receptor 2; cho): > 1000 nM
- Ki (Cannabinoid receptor 1): 12.9 nM

SMILES: C[S+]([O-])c1c(C(=O)NN2CCCCC2)nn(-c2ccc(Cl)cc2Cl)c1-c1ccc(Cl)cc1 (stereo not drawn)
- logP [1]: 3.7
- Ratio (LLC-PK1): 8
- Ki (Cannabinoid receptor 2): 398 nM
- Ki (Cannabinoid receptor 1): 20 nM
- ED50 (Rattus norvegicus): > 30 mg/kg
- Ratio IC50 (Homo sapiens): 20

SMILES: CCc1c(C(=O)NN2CCCCC2)nc(-c2ccc(Cl)cc2Cl)n1-c1ccc(Cl)cc1
- Ratio IC50 (Homo sapiens): 31

SMILES: O=C(NN1CCCCC1)c1nc(-c2ccc(Cl)cc2Cl)n(-c2ccc(Cl)cc2)c1CO
- Ki (Cannabinoid receptor 2): 7500 nM
- Ki (Cannabinoid receptor 1): 34 nM
- Ratio IC50 (Homo sapiens): 221

SMILES: C[S+]([O-])c1c(C(=O)NN2CCCCC2)nc(-c2ccc(Cl)cc2Cl)n1-c1ccc(Cl)cc1 (stereo in doubt; 12) [listing 2 of 2 here]
- logP [1]: 3.7
- Ratio (LLC-PK1): 7.7
- Ki (Cannabinoid receptor 2; cho): > 1000 nM
- Ki (Cannabinoid receptor 1): 49 nM
- ED50 (Rattus norvegicus): > 30 mg/kg

SMILES: CSc1c(C(=O)NN2CCCCC2)nn(-c2ccc(Cl)cc2Cl)c1-c1ccc(Cl)cc1
- Ki (Cannabinoid receptor 2): 804 nM
- Ki (Cannabinoid receptor 1): 13 nM
- ED50 (Rattus norvegicus): 1.5 mg/kg

SMILES: Cc1c(C(=O)NN2CCCCC2)nn(-c2ccc(Cl)cc2Cl)c1-c1ccc(Cl)cc1 [RIMONABANT]
- half-life [2]: 6 days

SMILES: O=C(NN1CCCCC1)c1nc(-c2ccc(Cl)cc2Cl)n(-c2ccc(Cl)cc2)c1I
- Ki (Cannabinoid receptor 2): 1810 nM
- Ki (Cannabinoid receptor 1): 10 nM
- Ratio IC50 (Homo sapiens): 181

SMILES: CSc1c(C(=O)NN2CCCCCC2)nn(-c2ccc(Cl)cc2Cl)c1-c1ccc(Cl)cc1
- Ki (Cannabinoid receptor 2): 371 nM
- Ki (Cannabinoid receptor 1): 27 nM
- Ratio IC50 (Homo sapiens): 14

SMILES: CSc1c(C(=O)NN2CCCCC2)nc(-c2ccc(Cl)cc2Cl)n1-c1ccc(Cl)cc1
- logP [1]: 4.8
- Ratio (LLC-PK1): 1.4
- Ki (Cannabinoid receptor 2): 1070 nM
- Ki (Cannabinoid receptor 1): 12.2 nM
- ED50 (Rattus norvegicus): 1.9 mg/kg
- Ratio IC50 (Homo sapiens): 88

SMILES: CSc1c(C(=O)NN2CCCC2)nc(-c2ccc(Cl)cc2Cl)n1-c1ccc(Cl)cc1
- Ki (Cannabinoid receptor 1): 8.9 nM
- Ratio IC50 (Homo sapiens): > 112

SMILES: C[S+]([O-])c1c(C(=O)NN2CCCCC2)nc(-c2ccc(Cl)cc2Cl)n1-c1ccc(Cl)cc1 (single isomer, unassigned; (+)) [listing 2 of 2 here]
- Ratio IC50 (Homo sapiens): > 77
